Assay results taken from patent US20100143506A1, “APPARATUS AND METHOD FOR TREATMENT OF MICROORGANISMS DURING SUGAR PRODUCTION AND SUGAR-BASED FE[…]” (priority 2008, published 2010).

How the values were obtained:
bacteria = test: Plant trial: lactate in the fermentor while the thin juice line is treated with chlorine dioxide
Description: A thin juice line at a sugar plant that fed into a distillery for fermentation was treated with chlorine dioxide according to the present method. Previously the thin juice line had been treated using sulfuric acid to decrease the pH. The trial evaluated the bacterial efficacy of chlorine dioxide at an elevated pH in order to reduce sulfuric acid use without causing a detrimental effect to the yeast or fermentation.
In the trial, 90% pure chlorine dioxide solution was generated. Twenty parts per million (ppm) of chlorine dioxide was introduced into the thin juice line. Thin juice samples were collected before during and after the trial. The samples were examined for chlorite, chlorate and chloride residuals.
During the trial, bacterial samples were also collected and analyzed at various locations in the system.
The data indicates a low level of lactate before chlorine dioxide was introduced at the normal pH of 3.5. […] On day 18 the equipment had to be shutdown due to an unrelated issue.

fermentation = details: cited from earlier work
Weisella confusa = details: cited from earlier work

[O][Cl+][O-] [chlorine dioxide]
Lactate Concentration (bacteria; Day of Trial 4, Fifth location in the Fermentor): 0.6 g/L | Lactate Concentration (bacteria; Day of Trial 4, First location in the Fermentor): 0.39 g/L | Lactate Concentration (bacteria; Day of Trial 4, Fourth location in the Fermentor): 0.58 g/L | Lactate Concentration (bacteria; Day of Trial 4, Second location in the Fermentor): 0.6 g/L | Lactate Concentration (bacteria; Day of Trial 4, Third location in the Fermentor): 0.6 g/L | Lactate Concentration (bacteria; Day of Trial 5, Fifth location in the Fermentor): 0.75 g/L | Lactate Concentration (bacteria; Day of Trial 5, First location in the Fermentor): 0.44 g/L | Lactate Concentration (bacteria; Day of Trial 5, Fourth location in the Fermentor): 0.69 g/L | Lactate Concentration (bacteria; Day of Trial 5, Second location in the Fermentor): 0.66 g/L | Lactate Concentration (bacteria; Day of Trial 5, Third location in the Fermentor): 0.71 g/L | Lactate Concentration (bacteria; Day of Trial 6, Fifth location in the Fermentor): 0.69 g/L | Lactate Concentration (bacteria; Day of Trial 6, First location in the Fermentor): 0.39 g/L | Lactate Concentration (bacteria; Day of Trial 6, Fourth location in the Fermentor): 0.71 g/L | Lactate Concentration (bacteria; Day of Trial 6, Second location in the Fermentor): 0.54 g/L | Lactate Concentration (bacteria; Day of Trial 6, Third location in the Fermentor): 0.62 g/L | Lactate Concentration (bacteria; Day of Trial 7, Fifth location in the Fermentor): 0.9 g/L | Lactate Concentration (bacteria; Day of Trial 7, First location in the Fermentor): 0.51 g/L | Lactate Concentration (bacteria; Day of Trial 7, Fourth location in the Fermentor): 0.88 g/L | Lactate Concentration (bacteria; Day of Trial 7, Second location in the Fermentor): 0.76 g/L | Lactate Concentration (bacteria; Day of Trial 7, Third location in the Fermentor): 0.81 g/L | Lactate Concentration (bacteria; Day of Trial 8, Fifth location in the Fermentor): 0.75 g/L | Lactate Concentration (bacteria; Day of Trial 8, First location in the Fermentor): 0.44 g/L | Lactate Concentration (bacteria; Day of Trial 8, Fourth location in the Fermentor): 0.7 g/L | Lactate Concentration (bacteria; Day of Trial 8, Second location in the Fermentor): 0.55 g/L | Lactate Concentration (bacteria; Day of Trial 8, Third location in the Fermentor): 0.64 g/L | Lactate Concentration (bacteria; Day of Trial 9, Fifth location in the Fermentor): 0.83 g/L | Lactate Concentration (bacteria; Day of Trial 9, First location in the Fermentor): 0.5 g/L | Lactate Concentration (bacteria; Day of Trial 9, Fourth location in the Fermentor): 0.78 g/L | Lactate Concentration (bacteria; Day of Trial 9, Second location in the Fermentor): 0.68 g/L | Lactate Concentration (bacteria; Day of Trial 9, Third location in the Fermentor): 0.74 g/L | Lactate Concentration (bacteria; Day of Trial 10, Fifth location in the Fermentor): 0.84 g/L | Lactate Concentration (bacteria; Day of Trial 10, First location in the Fermentor): 0.55 g/L | Lactate Concentration (bacteria; Day of Trial 10, Fourth location in the Fermentor): 0.83 g/L | Lactate Concentration (bacteria; Day of Trial 10, Second location in the Fermentor): 0.77 g/L | Lactate Concentration (bacteria; Day of Trial 10, Third location in the Fermentor): 0.82 g/L | Lactate Concentration (bacteria; Day of Trial 11, Fifth location in the Fermentor): 0.8 g/L | Lactate Concentration (bacteria; Day of Trial 11, First location in the Fermentor): 0.4 g/L | Lactate Concentration (bacteria; Day of Trial 11, Fourth location in the Fermentor): 0.65 g/L | Lactate Concentration (bacteria; Day of Trial 11, Second location in the Fermentor): 0.5 g/L | Lactate Concentration (bacteria; Day of Trial 11, Third location in the Fermentor): 0.55 g/L | Lactate Concentration (bacteria; Day of Trial 13, Fifth location in the Fermentor): 0.42 g/L | Lactate Concentration (bacteria; Day of Trial 13, First location in the Fermentor): 0.22 g/L | Lactate Concentration (bacteria; Day of Trial 13, Fourth location in the Fermentor): 0.39 g/L | Lactate Concentration (bacteria; Day of Trial 13, Second location in the Fermentor): 0.33 g/L | Lactate Concentration (bacteria; Day of Trial 13, Third location in the Fermentor): 0.36 g/L | Lactate Concentration (bacteria; Day of Trial 14, Fifth location in the Fermentor): 0.51 g/L | Lactate Concentration (bacteria; Day of Trial 14, First location in the Fermentor): 0.22 g/L | Lactate Concentration (bacteria; Day of Trial 14, Fourth location in the Fermentor): 0.4 g/L | Lactate Concentration (bacteria; Day of Trial 14, Second location in the Fermentor): 0.36 g/L | Lactate Concentration (bacteria; Day of Trial 14, Third location in the Fermentor): 0.37 g/L | Lactate Concentration (bacteria; Day of Trial 15, Fifth location in the Fermentor): 0.5 g/L | Lactate Concentration (bacteria; Day of Trial 15, First location in the Fermentor): 0.22 g/L | Lactate Concentration (bacteria; Day of Trial 15, Fourth location in the Fermentor): 0.4 g/L | Lactate Concentration (bacteria; Day of Trial 15, Second location in the Fermentor): 0.32 g/L | Lactate Concentration (bacteria; Day of Trial 15, Third location in the Fermentor): 0.34 g/L | Lactate Concentration (bacteria; Day of Trial 16, Fifth location in the Fermentor): 0.6 g/L | Lactate Concentration (bacteria; Day of Trial 16, First location in the Fermentor): 0.3 g/L | Lactate Concentration (bacteria; Day of Trial 16, Fourth location in the Fermentor): 0.5 g/L | Lactate Concentration (bacteria; Day of Trial 16, Second location in the Fermentor): 0.4 g/L | Lactate Concentration (bacteria; Day of Trial 16, Third location in the Fermentor): 0.45 g/L | Lactate Concentration (bacteria; Day of Trial 17, Fifth location in the Fermentor): 0.67 g/L | Lactate Concentration (bacteria; Day of Trial 17, First location in the Fermentor): 0.29 g/L | Lactate Concentration (bacteria; Day of Trial 17, Fourth location in the Fermentor): 0.57 g/L | Lactate Concentration (bacteria; Day of Trial 17, Second location in the Fermentor): 0.43 g/L | Lactate Concentration (bacteria; Day of Trial 17, Third location in the Fermentor): 0.5 g/L | Lactate Concentration (bacteria; Day of Trial 18, Fifth location in the Fermentor): 0.62 g/L | Lactate Concentration (bacteria; Day of Trial 18, First location in the Fermentor): 0.43 g/L | Lactate Concentration (bacteria; Day of Trial 18, Fourth location in the Fermentor): 0.6 g/L | Lactate Concentration (bacteria; Day of Trial 18, Second location in the Fermentor): 0.48 g/L | Lactate Concentration (bacteria; Day of Trial 18, Third location in the Fermentor): 0.54 g/L | Lactate Concentration (bacteria; Day of Trial 19, Fifth location in the Fermentor): 1.1 g/L | Lactate Concentration (bacteria; Day of Trial 19, First location in the Fermentor): 0.4 g/L | Lactate Concentration (bacteria; Day of Trial 19, Fourth location in the Fermentor): 0.8 g/L | Lactate Concentration (bacteria; Day of Trial 19, Second location in the Fermentor): 0.6 g/L | Lactate Concentration (bacteria; Day of Trial 19, Third location in the Fermentor): 0.7 g/L | Lactate Concentration (bacteria; Day of Trial 20, Fifth location in the Fermentor): 0.85 g/L | Lactate Concentration (bacteria; Day of Trial 20, First location in the Fermentor): 0.55 g/L | Lactate Concentration (bacteria; Day of Trial 20, Fourth location in the Fermentor): 0.5 g/L | Lactate Concentration (bacteria; Day of Trial 20, Second location in the Fermentor): 0.7 g/L | Lactate Concentration (bacteria; Day of Trial 20, Third location in the Fermentor): 0.75 g/L | Lactate Concentration (bacteria; Day of Trial 21, Fifth location in the Fermentor): 1.36 g/L | Lactate Concentration (bacteria; Day of Trial 21, First location in the Fermentor): 0.9 g/L | Lactate Concentration (bacteria; Day of Trial 21, Fourth location in the Fermentor): 1.35 g/L | Lactate Concentration (bacteria; Day of Trial 21, Second location in the Fermentor): 1.16 g/L | Lactate Concentration (bacteria; Day of Trial 21, Third location in the Fermentor): 1.24 g/L | Lactate Concentration (bacteria; Day of Trial 22, Fifth location in the Fermentor): 1.66 g/L | Lactate Concentration (bacteria; Day of Trial 22, First location in the Fermentor): 1.31 g/L | Lactate Concentration (bacteria; Day of Trial 22, Fourth location in the Fermentor): 2.04 g/L | Lactate Concentration (bacteria; Day of Trial 22, Second location in the Fermentor): 1.73 g/L | Lactate Concentration (bacteria; Day of Trial 22, Third location in the Fermentor): 2.01 g/L | Lactate Concentration (bacteria; Day of Trial 23, Fifth location in the Fermentor): 2.15 g/L | Lactate Concentration (bacteria; Day of Trial 23, First location in the Fermentor): 1.39 g/L | Lactate Concentration (bacteria; Day of Trial 23, Fourth location in the Fermentor): 2.19 g/L | Lactate Concentration (bacteria; Day of Trial 23, Second location in the Fermentor): 1.75 g/L | Lactate Concentration (bacteria; Day of Trial 23, Third location in the Fermentor): 2.01 g/L | Lactate Concentration (bacteria; Day of Trial 24, Fifth location in the Fermentor): 2.13 g/L | Lactate Concentration (bacteria; Day of Trial 24, First location in the Fermentor): 1.12 g/L | Lactate Concentration (bacteria; Day of Trial 24, Fourth location in the Fermentor): 2 g/L | Lactate Concentration (bacteria; Day of Trial 24, Second location in the Fermentor): 1.41 g/L | Lactate Concentration (bacteria; Day of Trial 24, Third location in the Fermentor): 1.73 g/L | lactate trend once treatment was started (bacteria; chlorine dioxide at 20 ppm with a pH elevation to 4): trended downward

Virginiamycin
concentration that will suppress fermentation (fermentation): over 6 mg/L | concentration required to inhibit growth of Weisella confusa (Weisella confusa): over 25 mg/L
